What was measured:
[1] = target: T1, Human Serum Albumin (HSA) (Homo sapiens, UniProt P02768); experiment: K-37 fluorescence bound to HSA with and without octanoate (Example 4); format: binding
Protocol: (§1) The dye K-37 was added at a concentration of 0.5 mM to LDL at a total lipid concentration of 5 mM, in the presence and absence of 50 mg/ml HSA. Measurements were made with and without the addition of 0.1 M sodium octanoate, which acted as a ligand binding inhibitor.

[2] = target: T1, Human Serum Albumin (HSA); experiment: Nile Red fluorescence bound to HSA with and without octanoate (Example 5); format: binding
Protocol: as §1
Following the findings described in Example 4, concerning the addition of octanoate to block the hydrophobic binding sites of HSA, the inventors then observed that Nile Red also binds to HSA and fluoresces. This additional fluorescence of Nile Red when bound to HSA also causes a substantial background signal, which distorts and thereby causes significant errors in the measurement of HDL. They therefore decided to block the hydrophobic binding sites in HSA with the same ligand binding inhibitor as for K-37 blocking, i.e. sodium octanoate. The experiments conducted with Nile Red and HSA, were based on those discussed in Example 4, and all using 0.5 mM Nile Red.

[3] = target: drug binding domain of HSA (Homo sapiens, UniProt P02768); experiment: Blocking the drug binding domain of HSA in the HDL/Nile red assay
Text: This led the inventors to realise that the HDL/Nile red assay may be improved further by using an additional blocker. They tried agents that block the drug binding domain of HSA. […] The benzoic acid has the added bonus of quenching the Nile Red residual fluorescence in solution by about 20%.

[4] = Excitation and emission maxima of the dyes; format: physicochemical

T1 sequence (P02768 25-609): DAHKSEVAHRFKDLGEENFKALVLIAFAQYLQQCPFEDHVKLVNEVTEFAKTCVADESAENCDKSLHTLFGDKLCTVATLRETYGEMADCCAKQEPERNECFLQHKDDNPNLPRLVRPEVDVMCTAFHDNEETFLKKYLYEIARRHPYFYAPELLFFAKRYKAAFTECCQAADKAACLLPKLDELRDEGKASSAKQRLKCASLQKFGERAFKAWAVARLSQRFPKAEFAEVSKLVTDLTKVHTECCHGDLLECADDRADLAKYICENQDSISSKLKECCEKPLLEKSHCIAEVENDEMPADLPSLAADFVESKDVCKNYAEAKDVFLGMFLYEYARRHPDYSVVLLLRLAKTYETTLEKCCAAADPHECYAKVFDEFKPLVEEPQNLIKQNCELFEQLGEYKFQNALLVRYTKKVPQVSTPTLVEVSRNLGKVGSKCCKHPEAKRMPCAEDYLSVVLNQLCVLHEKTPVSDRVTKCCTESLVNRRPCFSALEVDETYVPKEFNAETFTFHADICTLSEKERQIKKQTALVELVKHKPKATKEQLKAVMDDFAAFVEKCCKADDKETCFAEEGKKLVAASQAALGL
Chain of drug binding domain of HSA (P02768 25-609): as above

Structure (SMILES): CN(C)c1ccc(/C=C/C(=O)c2ccc(S(=O)(=O)C(F)F)cc2)cc1 [K-37, 4-dimethylamino-4′-difluoromethyl-sulphonyl-benzylidene-acetophenone]
- Fluorescence Intensity ([1]; 0.5 mM K-37 plus 50 mg/ml HSA): 79300 units
- Fluorescence Intensity ([1]; 0.5 mM K-37 plus 50 mg/ml HSA + 0.1 M sodium octanoate): 3600 units

Structure (SMILES): CCN(CC)c1ccc2nc3c4ccccc4c(=O)cc-3oc2c1 [Nile Red]
- Fluorescence Intensity ([2]; 0.5 mM Nile Red plus 50 mg/ml HSA): 58.905 units
- Fluorescence Intensity ([2]; 0.5 mM Nile Red plus 50 mg/ml HSA + 50 mM octanoate): 9.118 units

Structure (SMILES): O=C(O)c1ccccc1 [benzoic acid]
- quenching of the Nile Red residual fluorescence in solution [3]: about 20%
- displacement of Nile Red from HSA ([3]; at about 5 mM, without affecting the lipoprotein fluorescence): worked to displace the Nile Red from HSA

Structure (SMILES): c1cc2ccc3cccc4ccc(c1)c2c34 [pyrene]
- excitation maximum [4]: 320 nm

Reference: US20110129932A1, “Lipoprotein Assay” (L3 TECHNOLOGY LIMITED, priority 2006, published 2011)
